Experimental data from ChEMBL document CHEMBL3822364, “Synthesis, characterization and antimicrobial activity of novel Schiff base tethered boronate esters of 1,2-O-isopropylidene-α-d-xylofuranose” (2016).
Converted amounts (≈) assume the structure as drawn.

What was measured:
Streptococcus mutans [1] = experiment: Antibacterial activity against Streptococcus mutans MTCC 497 assessed as zone of inhibition at 100 ug/well measured after 24 hrs by agar well diffusion method; assay type: functional; details: MTCC 497, 24 h, read-out: DIZ
Micrococcus luteus [2] = experiment: Antibacterial activity against Micrococcus luteus MTCC 106 assessed as zone of inhibition at 100 ug/well measured after 24 hrs by agar well diffusion method; assay type: functional; details: MTCC 106, 24 h, read-out: DIZ
Staphylococcus aureus [3] = experiment: Antibacterial activity against Staphylococcus aureus MTCC 3160 assessed as zone of inhibition at 100 ug/well measured after 24 hrs by agar well diffusion method; assay type: functional; details: MTCC 3160, 24 h, read-out: DIZ
Salmonella paratyphi [4] = experiment: Antibacterial activity against Salmonella paratyphi assessed as zone of inhibition at 100 ug/well measured after 24 hrs by agar well diffusion method; assay type: functional, Salmonella enterica subsp. enterica serovar Paratyphi A; details: Salmonella enterica, read-out: DIZ
Salmonella typhi [5] = experiment: Antibacterial activity against Salmonella typhi assessed as zone of inhibition at 100 ug/well measured after 24 hrs by agar well diffusion method; assay type: functional, Salmonella enterica subsp. enterica serovar Typhi; details: Salmonella enterica, read-out: DIZ
Klebsiella pneumoniae [6] = experiment: Antibacterial activity against Klebsiella pneumoniae MTCC 3384 assessed as zone of inhibition at 100 ug/well measured after 24 hrs by agar well diffusion method; assay type: functional; details: MTCC 3384, 24 h, read-out: DIZ
Candida albicans [7] = experiment: Antifungal activity against Candida albicans MTCC 3017 assessed as zone of inhibition at 100 ug/well measured after 48 hrs by agar well diffusion method; assay type: functional; details: MTCC 3017, 48 h, read-out: DIZ
Aspergillus fumigatus [8] = experiment: Antifungal activity against Aspergillus fumigatus MTCC 343 assessed as zone of inhibition at 100 ug/well measured after 48 hrs by agar well diffusion method; assay type: functional; details: MTCC 343, 48 h, read-out: DIZ
Streptococcus mutans [9] = experiment: Antibacterial activity against Streptococcus mutans MTCC 497 measured after 24 hrs by NCCL protocol based broth dilution method; assay type: functional; details: MTCC 497, 24 h
Micrococcus luteus [10] = experiment: Antibacterial activity against Micrococcus luteus MTCC 106 measured after 24 hrs by NCCL protocol based broth dilution method; assay type: functional; details: MTCC 106, 24 h
Staphylococcus aureus [11] = experiment: Antibacterial activity against Staphylococcus aureus MTCC 3160 measured after 24 hrs by NCCL protocol based broth dilution method; assay type: functional; details: MTCC 3160, 24 h
Salmonella paratyphi [12] = experiment: Antibacterial activity against Salmonella paratyphi measured after 24 hrs by NCCL protocol based broth dilution method; assay type: functional, Salmonella enterica subsp. enterica serovar Paratyphi A; details: Salmonella enterica
Salmonella typhi [13] = experiment: Antibacterial activity against Salmonella typhi measured after 24 hrs by NCCL protocol based broth dilution method; assay type: functional, Salmonella enterica subsp. enterica serovar Typhi; details: Salmonella enterica
Klebsiella pneumoniae [14] = experiment: Antibacterial activity against Klebsiella pneumoniae MTCC 3384 measured after 24 hrs by NCCL protocol based broth dilution method; assay type: functional; details: MTCC 3384, 24 h
Candida albicans [15] = experiment: Antifungal activity against Candida albicans MTCC 3017 measured after 48 hrs by NCCL protocol based broth dilution method; assay type: functional; details: MTCC 3017, 48 h
Aspergillus fumigatus [16] = experiment: Antifungal activity against Aspergillus fumigatus MTCC 343 measured after 48 hrs by NCCL protocol based broth dilution method; assay type: functional; details: MTCC 343, 48 h

SMILES | zone of inhibition at 100 µg/disc (Streptococcus mutans [1]) | zone of inhibition at 100 µg/disc (Micrococcus luteus [2]) | zone of inhibition at 100 µg/disc (Staphylococcus aureus [3]) | zone of inhibition at 100 µg/disc (Salmonella paratyphi [4]) | zone of inhibition at 100 µg/disc (Salmonella typhi [5]) | zone of inhibition at 100 µg/disc (Klebsiella pneumoniae [6]) | zone of inhibition at 100 µg/disc (Candida albicans [7]) | zone of inhibition at 100 µg/disc (Aspergillus fumigatus [8]) | MIC (Streptococcus mutans [9]) | MIC (Micrococcus luteus [10]) | MIC (Staphylococcus aureus [11]) | MIC (Salmonella paratyphi [12]) | MIC (Salmonella typhi [13]) | MIC (Klebsiella pneumoniae [14]) | MIC (Candida albicans [15]) | MIC (Aspergillus fumigatus [16])
CC1(C)O[C@H]2O[C@@H]3COB(c4ccc(C=O)cc4)O[C@@H]3[C@H]2O1 | 21 mm | 12 mm | 12 mm | 21 mm | 22 mm | 20 mm | 18 mm | 0 mm | 62.5 µg/mL (≈ 206 µM) | 125 µg/mL (≈ 411 µM) | 125 µg/mL (≈ 411 µM) | 31.2 µg/mL (≈ 103 µM) | 31.2 µg/mL (≈ 103 µM) | 62.5 µg/mL (≈ 206 µM) | 125 µg/mL (≈ 411 µM) | 250 µg/mL (≈ 822 µM)
CC1(C)O[C@H]2O[C@@H]3COB(c4ccc(/C=N/c5ccc(Br)cc5)cc4)O[C@@H]3[C@H]2O1 | 17 mm | 13 mm | 15 mm | 24 mm | 22 mm | 17 mm | 19 mm | 16 mm | 62.5 µg/mL (≈ 136 µM) | 250 µg/mL (≈ 546 µM) | 125 µg/mL (≈ 273 µM) | 15.6 µg/mL (≈ 34.1 µM) | 62.5 µg/mL (≈ 136 µM) | 62.5 µg/mL (≈ 136 µM) | 62.5 µg/mL (≈ 136 µM) | 125 µg/mL (≈ 273 µM)
CC1(C)O[C@H]2O[C@@H]3COB(c4ccccc4F)O[C@@H]3[C@H]2O1 | 12 mm | 8 mm | 11 mm | 9 mm | 11 mm | 12 mm | 11 mm | 9 mm | 125 µg/mL (≈ 425 µM) | 250 µg/mL (≈ 850 µM) | 125 µg/mL (≈ 425 µM) | 125 µg/mL (≈ 425 µM) | 250 µg/mL (≈ 850 µM) | 250 µg/mL (≈ 850 µM) | 500 µg/mL (≈ 1700 µM) | 500 µg/mL (≈ 1700 µM)
CC1(C)O[C@H]2O[C@@H]3COB(c4cccc(/N=C/c5cc([N+](=O)[O-])ccc5O)c4)O[C@@H]3[C@H]2O1 | 23 mm | 25 mm | 21 mm | 21 mm | 28 mm | 18 mm | 23 mm | 22 mm | 31.2 µg/mL (≈ 71 µM) | 15.6 µg/mL (≈ 35.5 µM) | 31.2 µg/mL (≈ 71 µM) | 31.2 µg/mL (≈ 71 µM) | 15.6 µg/mL (≈ 35.5 µM) | 62.5 µg/mL (≈ 142 µM) | 31.2 µg/mL (≈ 71 µM) | 62.5 µg/mL (≈ 142 µM)
CC1(C)O[C@H]2O[C@@H]3COB(c4cccc(/N=C/c5cc(Br)ccc5O)c4)O[C@@H]3[C@H]2O1 | 21 mm | 22 mm | 13 mm | 14 mm | 24 mm | 21 mm | 18 mm | 0 mm | 62.5 µg/mL (≈ 132 µM) | 31.2 µg/mL (≈ 65.9 µM) | 125 µg/mL (≈ 264 µM) | 62.5 µg/mL (≈ 132 µM) | 31.2 µg/mL (≈ 65.9 µM) | 62.5 µg/mL (≈ 132 µM) | 62.5 µg/mL (≈ 132 µM) | 250 µg/mL (≈ 527 µM)
CC1(C)O[C@H]2O[C@@H]3COB(c4cccc(/C=N/c5ccc(F)cc5)c4)O[C@@H]3[C@H]2O1 | 18 mm | 11 mm | 20 mm | 21 mm | 24 mm | 16 mm | 19 mm | 0 mm | 62.5 µg/mL (≈ 157 µM) | 125 µg/mL (≈ 315 µM) | 31.2 µg/mL (≈ 78.7 µM) | 31.2 µg/mL (≈ 78.7 µM) | 31.2 µg/mL (≈ 78.7 µM) | 62.5 µg/mL (≈ 157 µM) | 62.5 µg/mL (≈ 157 µM) | 250 µg/mL (≈ 629 µM)
